Data as given in the NIST ThermoML archive (doi:10.1016/j.jct.2015.09.012).

Key:
[1] = molar heat capacity at constant pressure; xn = mol fraction of the nth substance listed; conditions: 100 kPa, Liquid, Large sample (1 g) DSC
[2] = 298.15 K; 101.33 kPa; Liquid; Vibrating tube method
[3] = molar heat capacity at constant pressure; conditions: Liquid

CC12CCC(CC1)C(C)(C)O2 [1,3,3-trimethyl-2-oxabicyclo[2.2.2]octane] + CCO
molar heat capacity at constant pressure [J/K/mol], [1]
Conditions	304.7 K	309.6 K	314.6 K	319.5 K	324.5 K
x1 = 0.0506	123.9	126.2	128.6	131.1	133.5
x1 = 0.099	132	134.6	137.1	139.7	142.1
x1 = 0.1999	149	151.8	154.6	157.1	160
x1 = 0.3007	166	169	171.8	174.9	177.7
x1 = 0.3956	181.7	184.9	188.1	191.1	194.1
x1 = 0.5002	199.4	202.5	205.5	208.5	211.3
x1 = 0.5975	214.3	217.4	221.5	224.5	227.4
x1 = 0.7017	231.6	235.1	238	241.2	244.1
x1 = 0.8065	247.2	250.5	253.6	256.7	259.3
x1 = 0.8964	259.8	263.7	267	269.9	272.5
x1 = 0.9501	267	269.9	273.4	275.8	279
x1 = 1	273.3	276.4	279.5	282.6	285.1

CC12CCC(CC1)C(C)(C)O2 [1,3,3-trimethyl-2-oxabicyclo[2.2.2]octane]
Conditions	mass density [kg/m3]
[2]	920.51

[3]
Conditions	molar heat capacity at constant pressure [J/K/mol]
293.26 K, 101.33 kPa, Small sample (50 mg) DSC	266.9
303.48 K, 101.33 kPa, Small sample (50 mg) DSC	273
304.7 K, 100 kPa, Large sample (1 g) DSC	273.3
309.6 K, 100 kPa, Large sample (1 g) DSC	276.4
313.71 K, 101.33 kPa, Small sample (50 mg) DSC	279.5
314.6 K, 100 kPa, Large sample (1 g) DSC	279.5
319.5 K, 100 kPa, Large sample (1 g) DSC	282.6
323.93 K, 101.33 kPa, Small sample (50 mg) DSC	285.2
324.5 K, 100 kPa, Large sample (1 g) DSC	285.1
334.16 K, 101.33 kPa, Small sample (50 mg) DSC	290.8
344.38 K, 101.33 kPa, Small sample (50 mg) DSC	297.7

CCO [ethanol]
Conditions	mass density [kg/m3]
[2]	785.2

[3], 100 kPa, Large sample (1 g) DSC
Conditions	molar heat capacity at constant pressure [J/K/mol]
304.7 K	115.3
309.6 K	117.3
314.6 K	119.6
319.5 K	121.9
324.5 K	124.2

CCO [ethanol] + CC12CCC(CC1)C(C)(C)O2
[1], x2 = 0
Conditions	molar heat capacity at constant pressure [J/K/mol]
304.7 K	115.3
309.6 K	117.3
314.6 K	119.6
319.5 K	121.9
324.5 K	124.2
